Test results: patent US20240336601A1 (Chulalongkorn University, priority 2020, published 2024)
pIC50: −log10 of the molar value.

Tests used:
[1] = biological target: interaction between PD-1 and PD-L1 (Homo sapiens, UniProt Q9NZQ7); assay: PD-1/PD-L1 protein-protein interaction assay (ALPHA); type: binding; conditions: 2 nM His-tagged human PD-L1, 0.6 nM PD-1-Fc, AlphaScreen
Procedure: PD-1′PD-L1 Protein-Protein Interaction Assay
Amplified Luminescent Proximity Homogeneous Assay (ALPHA) platform was used to evaluate the ability of the compounds to block the interaction between PD-1 and PD-L1. The assays were performed in half volume white 96-well plate in a final volume of 40 μl. Compounds at various concentrations were preincubated with 2 nM His tagged recombinant human PD-L1 protein and 0.6 nM recombinant PD-1 protein with Fc-tag (both reagents were purchased from AcroBiosystems) for 40 minutes. After the preincubation, 20 μg/mL of Alphascreen Ni chelate donor beads (PerkinElmer, USA) and Protein A acceptor beads (PerkinElmer, USA) were added into the well and incubated under reduced light at 25° C. for 120 minutes. The signal was measured with the EnSight Multimode Plate Reader. IC50 values were calculated from the four-parameter logistic curve fit.

PD-1/PD-L1 interaction = biological target: T1, PD-1/PD-L1 interaction (Homo sapiens, UniProt Q9NZQ7); assay: PD-1/PD-L1 blockage cell-based bioassay (Jurkat NFAT luciferase / CHO-PDL1 co-culture); conditions: Jurkat NFAT cells co-cultured with CHO-PDL1 cells, 6 h, luminescence
T1 construct: expressed in transfected cells
T1 sequence (Q9NZQ7 19-290): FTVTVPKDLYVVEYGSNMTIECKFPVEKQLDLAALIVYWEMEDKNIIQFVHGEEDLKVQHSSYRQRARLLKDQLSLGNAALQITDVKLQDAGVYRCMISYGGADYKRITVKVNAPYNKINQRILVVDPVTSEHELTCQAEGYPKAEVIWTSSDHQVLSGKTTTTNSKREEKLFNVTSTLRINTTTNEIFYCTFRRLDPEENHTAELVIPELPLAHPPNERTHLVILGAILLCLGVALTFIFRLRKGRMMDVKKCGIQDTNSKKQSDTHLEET
Procedure: PD-1/PD-L1 Blockage Cell-Based Bioassay
Jurkat T cells expressing human PD-1 and luciferase gene reporter driven by TCR-mediated NFAT response element (Jurkat NFAT) were co-cultured with CHO-kl cells expressing human PD-L1 and surface-bound TCR activator (CHO-PDL1). […] CHO-PDL1 cells (20,000 cells/well) were seeded overnight. Compounds were added on CHO-PDL1 and incubated for 2 h at 37° C. Jurkat NFAT cells (20,000 cells/well) were diluted in RPMI assay medium (RPMI1640 with 1% FBS) and added into each well. After co-incubation for 6 h at 37° C., luminescence was determined by adding Bio-Glo™ Luciferase reagent (Promega) and measured with a luminescence plate reader. EC50 values were calculated from the four-parameter concentration-response curves.

Sequence of interaction between PD-1 and PD-L1 (Q9NZQ7 19-238 limits assumed): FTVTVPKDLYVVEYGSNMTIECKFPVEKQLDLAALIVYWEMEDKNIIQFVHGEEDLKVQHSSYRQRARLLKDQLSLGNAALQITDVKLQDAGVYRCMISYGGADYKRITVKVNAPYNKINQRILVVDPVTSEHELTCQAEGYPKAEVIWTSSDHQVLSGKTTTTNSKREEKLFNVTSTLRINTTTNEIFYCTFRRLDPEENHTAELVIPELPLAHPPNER

COc1cc(-n2ccc3c(-c4ccc5c(c4)OCCO5)cccc32)cc(OC)c1CNC(C)(CO)C(=O)O (stereo not drawn) [Example 1, 2-((4-(4-(2,3-dihydrobenzo[b][1,4]dioxin-6-yl)-1H-indol-1-yl)-2,6-dimethoxybenzyl)amino)-3-hydroxy-2-methylpropanoic acid]
pIC50 [1]: 7.00 to 8.00 | pIC50 (PD-1/PD-L1 interaction): < 5.70

COc1cc(-n2ccc3c(-c4ccc5c(c4)OCCO5)cccc32)cc(OC)c1CN1C[C@H](O)C[C@@H]1C(=O)O [Example 2, (2R,4R)-1-(4-(4-(2,3-dihydrobenzo[b][1,4]dioxin-6-yl)-1H-indol-1-yl)-2,6-dimethoxybenzyl)-4-hydroxypyrrolidine-2-carboxylic acid]
pIC50 [1]: < 7.00

COc1cc(-n2ccc3c(-c4ccc5c(c4)OCCO5)cccc32)cc(OC)c1CNCCNC(C)=O [Example 3, N-(2-((4-(4-(2,3-dihydrobenzo[b][1,4]dioxin-6-yl)-1H-indol-1-yl)-2,6-dimethoxybenzyl)amino)ethyl)acetamide]
pIC50 [1]: < 7.00

CC(CO)(NCc1ccc(-n2ccc3c(-c4ccc5c(c4)OCCO5)cccc32)cc1OCc1cccc(C#N)c1)C(=O)O (stereo not drawn) [Example 5, 2-((2-((3-cyanobenzyl)oxy)-4-(4-(2,3-dihydrobenzo[b][1,4]dioxin-6-yl)-1H-indol-1-yl)benzyl)amino)-3-hydroxy-2-methylpropanoic acid]
pIC50 [1]: < 7.00

N#Cc1cccc(COc2cc(-n3ccc4c(-c5ccc6c(c5)OCCO6)cccc43)ccc2CNCCO)c1 [Example 6, 3-((5-(4-(2,3-dihydrobenzo[b][1,4]dioxin-6-yl)-1H-indol-1-yl)-2-(((2-hydroxyethyl)amino)methyl)phenoxy)methyl)benzonitrile]
pIC50 [1]: < 7.00

COc1cc(C(=O)n2ccc3c(-c4ccc5c(c4)OCCO5)cccc32)cc(OC)c1CNC(C)(CO)C(=O)O (stereo not drawn) [Example 7, 2-((4-(4-(2,3-dihydrobenzo[b][1,4]dioxin-6-yl)-1H-indole-1-carbonyl)-2,6-dimethoxybenzyl)amino)-3-hydroxy-2-methylpropanoic acid]
pIC50 [1]: < 7.00

O=C(O)[C@H](CO)NCc1ccc(-n2ccc3c(-c4ccc5c(c4)OCCO5)cccc32)nc1 [Example 9]
pIC50 [1]: < 7.00

COc1nc(-n2ccc3c(-c4ccc5c(c4)OCCO5)cccc32)ccc1CN[C@@H](CO)C(=O)O [Example 10]
pIC50 [1]: < 7.00

COc1nc(-n2ccc3c(-c4ccc5c(c4)OCCO5)cccc32)ccc1CN1CC(C)(O)C1 [Example 12, ((6-(4-(2,3-dihydrobenzo[b][1,4]dioxin-6-yl)-1H-indol-1-yl)~2~methoxypyridin-3-yl)methyl)-L-serine]
pIC50 [1]: < 7.00

COc1cc(-n2ccc3c(-c4ccc5c(c4)OCCO5)cccc32)cc(OC)c1CNC1CNC(=O)C1 (stereo not drawn) [Example 16]
pIC50 [1]: < 7.00

COc1cc(CNC[C@@H]2CCC(=O)N2)cc(-n2ccc3c(-c4ccc5c(c4)OCCO5)cccc32)c1 [Example 19]
pIC50 [1]: < 7.00

COc1cc(-c2cn(C)c3c(-c4ccc5c(c4)OCCO5)cccc23)cc(OC)c1CNC[C@@H]1CCC(=O)N1 [Example 23]
pIC50 [1]: 7.00 to 8.00

COc1cc(-c2c[nH]c3c(-c4ccc5c(c4)OCCO5)cccc23)cc(OC)c1CNC[C@@H]1CCC(=O)N1 [Example 24]
pIC50 [1]: < 7.00

Cn1cc(-n2ccc3c(-c4ccc5c(c4)OCCO5)cccc32)c2ncc(CNCC(C)(C)C(=O)O)cc21 [Example 25]
pIC50 [1]: < 7.00

COc1cc(-n2ccc3c(-c4cccc(-c5ccc(CN6CC(C)(O)C6)c(OC)n5)c4Cl)cccc32)cc(OC)c1CN1CC(C)(O)C1 [Example 28]
pIC50 [1]: 8.00 to 9.00 | pIC50 (PD-1/PD-L1 interaction): < 5.70

COc1cc(-n2ccc3c(-c4cccc(-c5ccc(CN6CC7(C6)CN(C(C)=O)C7)c(OC)n5)c4Cl)cccc32)cc(OC)c1CNC[C@@H]1CCC(=O)N1 [Example 32]
pIC50 [1]: 8.00 to 9.00 | pIC50 (PD-1/PD-L1 interaction): < 5.70

COc1cc(-n2ccc3c(-c4cccc(-c5ccc(CNCC6CNC6)c(OC)n5)c4Cl)cccc32)cc(OC)c1CNC[C@@H]1CCC(=O)N1 [Example 33]
pIC50 [1]: 7.00 to 8.00 | pIC50 (PD-1/PD-L1 interaction): < 5.70

COc1cc(-n2ccc3c(-c4cccc(-c5ccc(CN6CC[C@@H](O)C6)c(OC)n5)c4Cl)ccnc32)cc(OC)c1CNC[C@@H]1CCC(=O)N1 [Example 34]
pIC50 [1]: 8.00 to 9.00 | pIC50 (PD-1/PD-L1 interaction): < 5.70

COc1cc(-n2ccc3c(-c4cccc(-c5ccc(CN6CC(C)(O)C6)c(OC)n5)c4Cl)cccc32)cc(OC)c1CNC[C@@H]1CCC(=O)N1 [Example 35]
pIC50 [1]: 8.00 to 9.00 | pIC50 (PD-1/PD-L1 interaction): 5.70 to 6.70

COc1cc(-n2ccc3c(-c4cccc(-c5ccc(CN6CC(C)(C(=O)O)C6)c(OC)n5)c4Cl)cccc32)cc(OC)c1CNC[C@@H]1CCC(=O)N1 [Example 37]
pIC50 [1]: 8.00 to 9.00 | pIC50 (PD-1/PD-L1 interaction): 5.70 to 6.70

COc1cc(-n2ccc3c(-c4cccc(-c5ccc(CNC[C@@H]6CCC(=O)N6)c(OC)n5)c4Cl)cccc32)cc(OC)c1CN1CC[C@@H](NC(C)=O)C1 [Example 38]
pIC50 [1]: 7.00 to 8.00 | pIC50 (PD-1/PD-L1 interaction): < 5.70

COc1cc(-n2ccc3c(-c4cccc(-c5ccc(CNC[C@@H]6CCC(=O)N6)c(OC)n5)c4Cl)cccc32)cc(OC)c1CNCC(C)(C)C(N)=O [Example 39]
pIC50 [1]: > 9.00 | pIC50 (PD-1/PD-L1 interaction): 5.70 to 6.70

COc1cc(-n2ccc3c(-c4cccc(-c5ccc(CNC[C@@H]6CCC(=O)N6)c(OC)n5)c4Cl)cccc32)cc(OC)c1CNCC(C)(C)C(=O)O [Example 42]
pIC50 [1]: > 9.00 | pIC50 (PD-1/PD-L1 interaction): > 6.70

COc1cc(-n2ccc3c(-c4cccc(-c5ccc(CNC[C@@H]6CCC(=O)N6)c(OC)n5)c4Cl)ccnc32)cc(OC)c1CN1CC(C)(C(=O)NC2CC2)C1 [Example 46]
pIC50 [1]: 8.00 to 9.00 | pIC50 (PD-1/PD-L1 interaction): < 5.70

COc1cc(-n2ncc3c(-c4cccc(-c5ccc(CNC[C@H]6C[C@@H](O)C6)c(OC)n5)c4Cl)cccc32)cc(OC)c1CN1CC(C)(C(=O)O)C1 [Example 47]
pIC50 [1]: > 9.00 | pIC50 (PD-1/PD-L1 interaction): > 6.70

COc1cc(-n2ccc3c(-c4cccc(-c5ccc(CNCC(C)(C)C(=O)O)c(OC)n5)c4Cl)cccc32)cc(OC)c1CNC[C@@H]1CCC(=O)N1 [Example 48]
pIC50 [1]: 7.00 to 8.00 | pIC50 (PD-1/PD-L1 interaction): < 5.70

COC(=O)C1CC[C@H](NCc2ccc(-c3cccc(-c4cccc5c4ccn5-c4cc(OC)c(CNC[C@@H]5CCC(=O)N5)c(OC)c4)c3Cl)nc2OC)C1 (stereo partly drawn) [Example 50]
pIC50 [1]: 7.00 to 8.00 | pIC50 (PD-1/PD-L1 interaction): < 5.70

COc1cc(-n2ccc3c(-c4cccc(-c5ccc(CNC[C@@H]6CCC(=O)N6)c(OC)n5)c4Cl)cccc32)cc(OC)c1CN1CC(C)(O)C1 [Example 53]
pIC50 [1]: > 9.00 | pIC50 (PD-1/PD-L1 interaction): 5.70 to 6.70

COc1cc(-n2ncc3c(-c4cccc(-c5ccc(CN6CC(C)(O)C6)c(OC)n5)c4Cl)cccc32)cc(OC)c1CNC[C@@H]1CCC(=O)N1 [Example 54]
pIC50 [1]: 7.00 to 8.00 | pIC50 (PD-1/PD-L1 interaction): < 5.70

COc1cc(-n2ncc3c(-c4cccc(-c5ccc(CNC[C@H]6C[C@@H](O)C6)c(OC)n5)c4Cl)cccc32)cc(OC)c1CNC[C@@H]1CCC(=O)N1 [Example 55]
pIC50 [1]: 8.00 to 9.00 | pIC50 (PD-1/PD-L1 interaction): 5.70 to 6.70

COc1cc(-n2ccc3c(-c4cccc(NC(=O)c5ccc(CNC(C)(CO)C(=O)O)cc5)c4C)cccc32)cc(OC)c1CNC(C)(CO)C(=O)O (stereo not drawn) [Example 56, 2-((4-((3-(1-(4-(((2-carboxy-1-hydroxypropan-2-yl)amino)methyl)-3,5-dimethoxyphenyl)-1H-indol-4-yl)-2-methylphenyl)carbamoyl)benzyl)amino)-3-hydroxy-2-methylpropanoic acid]
pIC50 [1]: < 7.00

Cn1c(CN[C@@H](CO)C(=O)O)cc2ccc(-n3ccc4c(-c5ccc6c(c5)OCCO6)cccc43)cc21 [Example 57, (S)-2-(((4-(2,3-dihydrobenzo[b][1,4]dioxin-6-yl)-1′-methyl-1′H-[1,6′-biindol]-2′-yl)methyl)amino)-3-hydroxypropanoic acid]
pIC50 [1]: < 7.00

COc1nc(-n2ccc3c(-c4ccc5c(c4)OCCO5)cccc32)ccc1CN1CC2(C1)CN(C(C)=O)C2 [Example 58, 1-(6-((6-(4-(2,3-dihydrobenzo[b][1,4]dioxin-6-yl)-1H-indol-1-yl)-2-methoxypyridin-3-yl)methyl)-2,6-diazaspiro[3.3]heptan-2-yl)ethanone]
pIC50 [1]: < 7.00

c1cc(-c2ccc3c(c2)OCCO3)c2ccn(-c3nc4c(s3)CNCC4)c2c1 [Example 59, 2-(4-(2,3-dihydrobenzo[b] [1,4]dioxin-6-yl)-1H-indol-1-yl)-4,5,6,7-tetrahydrothiazolo[5,4-c]pyridine]
pIC50 [1]: < 7.00

COc1nc(-n2ccc3c(-c4ccc5c(c4)OCCO5)cccc32)cnc1CNC[C@@H]1CCC(=O)N1 [Example 60]
pIC50 [1]: < 7.00

COc1cc(-n2ccc3c(-c4ccc5c(c4)OCCO5)cccc32)cnc1CNC[C@@H]1CCC(=O)N1 [Example 61, (S)-5-((((5-(4-(2,3-dihydrobenzo[b][1,4]dioxin-6-yl)-1H-indol-1-yl)-3-methoxypyridin-2-yl)methyl)amino)methyl)pyrrolidin-2-one]
pIC50 [1]: < 7.00

Cc1nn(CCNC[C@@H]2CCC(=O)N2)c2ccc(-n3ccc4c(-c5ccc6c(c5)OCCO6)cccc43)cc12 [Example 62, (S)-5-(((2-(5-(4-(2,3-dihydrobenzo[b] [1,4]dioxin-6-yl)-1H-indol-1-yl)-3-methyl-1H-indazol-1-yl)ethyl)amino)methyl)pyrrolidin-2-one]
pIC50 [1]: < 7.00

Cc1cc2cc(CNC[C@@H]3CCC(=O)N3)cnc2c(-n2ccc3c(-c4ccc5c(c4)OCCO5)cccc32)n1 [Example 63, (S)-5-((((8-(4-(2,3-dihydrobenzo[b][1,4]dioxin-6-yl)-1H-indol-1-yl)-6-methyl-1,7-naphthyridin-3-yl)methyl)amino)methyl)pyrrolidin-2-one]
pIC50 [1]: < 7.00

COc1nc(N2CCc3c(-c4ccc5c(c4)OCCO5)cccc32)ccc1CNC[C@@H]1CCC(=O)N1 [Example 80, (S)-5-((((6-(4-(2,3-dihydrobenzo[b][1,4]dioxin-6-yl)indolin-1-yl)-2-methoxypyridin-3-yl)methyl)amino)methyl)pyrrolidin-2-one]
pIC50 [1]: < 7.00

Cc1cc(CN2CC(C)(C(=O)O)C2)cc(-n2ccc3c(-c4ccc5c(c4)OCCO5)cccc32)n1 [Example 86, 1-((2-(4-(2,3-dihydrobenzo[b][1,4]dioxin-6-yl)-1H-indol-1-yl)-6-methylpyridin-4-yl)methyl)-3-methylazetidine-3-carboxylic acid]
pIC50 [1]: < 7.00
